Reference: article PMC8629109 (Journal of medicinal chemistry, 2020)
Where two headings read alike, the source gives them in different places.

Tests used:
[1] = Plasma stability in rat serum; assay type: in vitro ADME; settings: 37 °C
[2] = molecular target: T1, mGluR2 (Homo sapiens, UniProt Q14416); assay: Competitive binding assay with [3H]JNJ-46281222 in mGluR2 transfected CHO cells
[3] = Rat liver microsomal stability; assay type: in vitro ADME; settings: Sprague-Dawley, liver microsomes, pH 7.4
[4] = PAMPA high / low permeability standard, value as stated, ref not given; cited from earlier work
[5] = Solution stability in aqueous buffers; assay type: physicochemical
[6] = test system: other mGluR subtypes (mGluR1, mGluR3, mGluR4, mGluR5, mGluR6, mGluR8); assay: Selectivity among mGluR subtypes; settings: versus mGluR2
[7] = molecular target: recombinant human P-gp (Homo sapiens, UniProt P08183); assay: Pgp-Glo assay, P-gp ATPase activity; settings: compared with basal and verapamil activities; test compound 200 μM
[8] = molecular target: mGluR2 (Rattus norvegicus, UniProt P31421); assay: PET imaging and blocking studies in rat brain; assay type: in vivo, Sprague-Dawley rats; settings: pretreatment 4 mg/kg i.v. 10 min before [11C]13, 10–30 min time window
[9] = molecular target: T1, mGluR2; assay: GloSensor cAMP biosensor assay, mGluR2 PAM activity; settings: read-out: EC50, mGluR2 PAM activity; in the presence of EC20 amount of L-glutamate; intracellular cAMP

T1 sequence (Q14416 19-872): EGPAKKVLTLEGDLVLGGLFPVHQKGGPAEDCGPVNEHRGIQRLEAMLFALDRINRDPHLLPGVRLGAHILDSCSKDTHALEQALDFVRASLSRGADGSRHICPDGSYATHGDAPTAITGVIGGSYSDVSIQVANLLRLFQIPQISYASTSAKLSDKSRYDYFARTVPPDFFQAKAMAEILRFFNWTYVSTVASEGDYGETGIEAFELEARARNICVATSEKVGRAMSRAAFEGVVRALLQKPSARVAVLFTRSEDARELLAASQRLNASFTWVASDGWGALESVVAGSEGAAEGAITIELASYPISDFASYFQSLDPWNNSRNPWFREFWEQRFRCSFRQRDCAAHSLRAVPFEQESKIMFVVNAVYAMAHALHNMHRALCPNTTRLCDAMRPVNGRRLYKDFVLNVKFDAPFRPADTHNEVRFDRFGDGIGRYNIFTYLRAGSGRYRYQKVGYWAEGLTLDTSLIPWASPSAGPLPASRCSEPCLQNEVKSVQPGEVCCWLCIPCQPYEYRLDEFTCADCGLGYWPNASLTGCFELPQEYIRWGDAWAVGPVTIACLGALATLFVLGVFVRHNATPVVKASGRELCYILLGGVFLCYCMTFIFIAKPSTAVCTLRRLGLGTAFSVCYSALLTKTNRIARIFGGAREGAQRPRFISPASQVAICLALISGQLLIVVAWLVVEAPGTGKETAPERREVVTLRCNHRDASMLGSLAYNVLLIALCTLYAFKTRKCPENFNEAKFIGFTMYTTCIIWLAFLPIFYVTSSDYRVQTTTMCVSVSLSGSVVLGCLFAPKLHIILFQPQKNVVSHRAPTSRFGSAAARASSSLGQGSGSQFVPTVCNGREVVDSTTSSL
Chain of mGluR2 (Rattus norvegicus, UniProt P31421) (P31421 19-872): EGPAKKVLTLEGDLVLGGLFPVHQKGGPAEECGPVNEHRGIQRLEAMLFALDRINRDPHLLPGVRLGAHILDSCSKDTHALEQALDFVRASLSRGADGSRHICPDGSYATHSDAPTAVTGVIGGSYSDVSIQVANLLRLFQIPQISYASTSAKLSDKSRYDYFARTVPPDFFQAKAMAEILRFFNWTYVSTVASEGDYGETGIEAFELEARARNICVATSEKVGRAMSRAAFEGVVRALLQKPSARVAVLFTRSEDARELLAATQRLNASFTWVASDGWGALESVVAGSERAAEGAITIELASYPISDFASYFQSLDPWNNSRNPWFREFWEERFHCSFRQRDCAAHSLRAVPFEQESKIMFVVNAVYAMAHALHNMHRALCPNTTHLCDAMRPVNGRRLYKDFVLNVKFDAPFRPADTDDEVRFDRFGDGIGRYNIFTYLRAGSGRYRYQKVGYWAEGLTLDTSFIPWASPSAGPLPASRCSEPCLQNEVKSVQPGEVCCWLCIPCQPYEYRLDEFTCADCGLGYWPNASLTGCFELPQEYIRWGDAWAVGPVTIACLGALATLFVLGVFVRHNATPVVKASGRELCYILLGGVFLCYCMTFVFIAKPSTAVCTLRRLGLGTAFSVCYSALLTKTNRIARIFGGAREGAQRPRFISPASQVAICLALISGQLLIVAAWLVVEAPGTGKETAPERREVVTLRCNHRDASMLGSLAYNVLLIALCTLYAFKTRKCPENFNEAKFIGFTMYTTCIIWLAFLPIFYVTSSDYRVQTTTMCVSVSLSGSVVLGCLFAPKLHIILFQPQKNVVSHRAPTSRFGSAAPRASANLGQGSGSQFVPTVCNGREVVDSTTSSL
Chain of recombinant human P-gp (P08183 whole entry): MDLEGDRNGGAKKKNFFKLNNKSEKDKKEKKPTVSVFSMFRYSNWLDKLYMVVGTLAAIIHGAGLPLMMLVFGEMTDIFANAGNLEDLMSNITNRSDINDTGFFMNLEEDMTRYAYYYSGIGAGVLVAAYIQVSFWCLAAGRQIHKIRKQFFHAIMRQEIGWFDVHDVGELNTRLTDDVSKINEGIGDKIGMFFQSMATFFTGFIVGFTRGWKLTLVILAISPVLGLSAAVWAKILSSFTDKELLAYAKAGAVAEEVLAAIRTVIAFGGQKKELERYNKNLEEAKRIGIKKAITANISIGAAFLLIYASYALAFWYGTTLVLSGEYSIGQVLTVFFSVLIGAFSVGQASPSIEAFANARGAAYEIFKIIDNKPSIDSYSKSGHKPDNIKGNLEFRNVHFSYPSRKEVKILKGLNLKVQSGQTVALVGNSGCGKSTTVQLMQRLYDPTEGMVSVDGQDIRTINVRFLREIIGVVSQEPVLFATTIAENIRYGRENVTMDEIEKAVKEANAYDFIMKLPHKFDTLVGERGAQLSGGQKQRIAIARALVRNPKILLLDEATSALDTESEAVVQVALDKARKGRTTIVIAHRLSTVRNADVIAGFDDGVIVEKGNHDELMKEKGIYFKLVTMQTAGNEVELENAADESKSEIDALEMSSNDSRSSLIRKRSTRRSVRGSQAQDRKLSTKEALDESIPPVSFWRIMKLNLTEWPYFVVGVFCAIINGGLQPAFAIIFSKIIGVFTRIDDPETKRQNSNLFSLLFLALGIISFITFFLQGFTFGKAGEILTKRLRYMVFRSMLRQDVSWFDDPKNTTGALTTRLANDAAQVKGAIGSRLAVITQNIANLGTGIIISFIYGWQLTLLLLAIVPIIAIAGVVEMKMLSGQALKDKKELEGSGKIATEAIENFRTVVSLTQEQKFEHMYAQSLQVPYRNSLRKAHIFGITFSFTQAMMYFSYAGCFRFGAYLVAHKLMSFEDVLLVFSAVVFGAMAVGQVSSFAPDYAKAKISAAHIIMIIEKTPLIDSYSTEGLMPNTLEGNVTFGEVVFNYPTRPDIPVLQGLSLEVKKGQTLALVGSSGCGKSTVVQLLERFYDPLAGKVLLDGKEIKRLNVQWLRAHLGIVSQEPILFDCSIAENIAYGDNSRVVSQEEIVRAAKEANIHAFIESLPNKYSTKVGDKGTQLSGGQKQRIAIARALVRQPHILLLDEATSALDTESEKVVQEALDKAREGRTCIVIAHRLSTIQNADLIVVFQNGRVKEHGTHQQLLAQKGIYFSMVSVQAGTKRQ

With `COc1ccc([C@@H]2Sc3ccccc3N(CCN(C)C)C(=O)[C@@H]2OC(C)=O)cc1` [Diltiazem, reference compound] as the compound, how does the “The plasma stability: the intact ± SEM at 120 min” value [1] read?
The value was 43.2 ± 0.8%.

Which “The plasma stability: the intact ± SEM at 120 min” value [1] does the source give for `COc1cc(C(F)(F)F)ccc1C1CCN(Cc2nc3nccc4c3n2CCC4)CC1` [Compound 14, 2-((4-(2-Methoxy-4-(trifluoromethyl)phenyl)piperidin-1-yl)methyl)-5,6-dihydro-4H-imidazo [4,5,1-ij][1,7]naphthyridine] here?
The value was 89.2 ± 0.6%.

And the IC50 [2]?
The IC50 was 10.5 ± 0.5 nM.

What about the half-life at 3 μM [3] of the same compound?
Its half-life at 3 μM is 1.23 h.

And the microsomal CLint at 3 μM [3]?
Its microsomal CLint at 3 μM is 18.1 µL/min/mg.

Which “Pe of quality control standard” value [4] does the source give for `Cn1c(=O)c2[nH]cnc2n(C)c1=O` [theophylline] here?
Its value is 0.12 ×10⁻⁶ cm/s.

Which half-life at 3 μM [3] does the source give for `COc1cc(NC(=O)c2ccccn2)ccc1Cl` [ML128, reference compound] here?
The half-life at 3 μM was 0.07 h.

And the microsomal CLint at 3 μM [3]?
The microsomal CLint at 3 μM was 317 µL/min/mg.

Which “The plasma stability: the intact ± SEM at 120 min” value [1] does the source give for `COc1cc(C(F)(F)F)ccc1C1CCN(Cc2nc3ncccc3n2C)CC1` [Compound 13, 2-((4-(2-Methoxy-4-(trifluoromethyl)phenyl)piperidin-1-yl)methyl)-1-methyl-1H-imidazo[4,5-b]pyridine] here?
The value was 96.6 ± 2.1%.

And the “The solution stability: the intact ± SEM at 120 min” value ([5]; pH = 5.0, 37 °C)?
Its value is 95.3 ± 0.3%.

And the “The solution stability: the intact ± SEM at 120 min” value ([5]; pH = 7.4, 37 °C)?
The value was 94.5 ± 0.4%.

What about the “The solution stability: the intact ± SEM at 120 min” value ([5]; pH = 9.4, 37 °C) of the same compound?
Its value is 96.1 ± 0.7%.

What about the “selectivity against other mGluR subtypes” value [6] of the same compound?
Its value is > 100 fold.

What about the “P-gp ATPase activity” value [7] of the same compound?
Its value is “moderate”.

And the P-gp substrate assessment [7]?
The P-gp substrate assessment was “not a P-gp substrate”.

What about the IC50 [2] of the same compound?
The IC50 was 7.6 ± 0.9 nM.

And the half-life at 3 μM [3]?
Its half-life at 3 μM is 1.24 h.

What about the “enhancement of radioactivity uptake in the different brain areas” value [8] of the same compound?
The value was 33–49%.

With `Fc1ccc(N2CCN(Cc3ccn4c(CC5CC5)nnc4c3C(F)(F)F)CC2)c(F)c1` [Compound 17, 3-(Cyclopropylmethyl)-7-((4-(2,4-difluorophenyl)piperazin-1-yl)methyl)-8-(trifluoromethyl)[1,2,4]triazolo[4,3-a]pyridine, reference compound] as the compound, how does the “decrease of [11C]13 uptake in different brain areas” value [8] read?
Its value is 28–37%.

With `COc1cc(C(F)(F)F)ccc1OC[C@@H]1[C@H]2CN(Cc3nc4ncccc4n3C)C[C@@H]12` [Compound 15, 2-(((1R,5S,6R)-6-((2-methoxy-4-(trifluoromethyl)phenoxy)methyl)-3-azabicyclo[3.1.0]hexan-3-yl)methyl)-1-methyl-1H-imidazo[4,5-b]pyridine] as the compound, how does the EC50 [9] read?
The EC50 was 7800 nM.

What about the IC50 ([2]; read-out: IC50 ± SEM, mGluR2 transfected CHO cells, 10 nM [3H]JNJ-46281222) of the same compound?
Its IC50 is 10.5 ± 7.9 nM.
